Holding throughout (experiment): MIC, liquid medium test tube series dilution test
The test system of assay [1] is Psdm. aerug. Bonn. Format: cell-based, Pseudomonas aerug. The following applies: 24 hours, 37°C. The procedure, abridged: (§1)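 Read-out: visual turbidity after 24 h at 37°C. The MIC, in units/ml, corresponds to the non-turbid tube in a liquid-medium test tube dilution series prepared in complete nutrient medium.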
The subject of assay [2] is Psdm. aerug. Walter. It counts as cell-based, Pseudomonas aerug. The note with it: 24 hours, 37°C. The procedure, abridged: as §1
Assay [3] has as its system Klebsiella K 10. It counts as cell-based. The note with it: Klebsiella K 10, 24 hours, 37°C. The procedure, abridged:
as §1

The test system of assay [4] is Klebsiella 63. It counts as cell-based. The following applies: Klebsiella 63, 24 hours, 37°C. The procedure, abridged:
as §1

The subject of assay [5] is E. coli A 261. It counts as cell-based. The note with it: E. coli A 261, 24 hours, 37°C. Summed up: as §1
Assay [6] deals with E. coli C 165. Format: cell-based. The note with it: E. coli C 165, 24 hours, 37°C. Summed up: as §1
Assay [7] deals with E. coli 14. It counts as cell-based. The note with it: E. coli 14, 24 hours, 37°C. The procedure, abridged:
as §1

Assay [8] has as its system Streptoc. faec. ATCC 9790. Format: cell-based. The following applies: Strep. faec. (Enterococcus) ATCC 9790, 24 hours, 37°C. The procedure, abridged: as §1
Assay [9] deals with E. coli 183/58. It counts as cell-based. The note with it: E. coli 183/58, 24 hours, 37°C. The procedure, abridged:
as §1

For assay [10], the system named is Proteus vulg. 3400. It counts as cell-based, Proteus vulgaris. The following applies: Proteus vulg. 3400, 24 hours, 37°C. The procedure, abridged: as §1
In assay [11] the test system is Proteus vulg. 1017. It counts as cell-based, Proteus vulgaris. The note with it: Proteus vulg. 1017, 24 hours, 37°C. Summed up:
as §1

The test system of assay [12] is Staph. aureus 1777 E. Format: cell-based, Staphylococcus aureus. The note with it: 24 hours, 37°C. Summed up:
as §1

Assay [13] has as its system Staph. aureus 133. Format: cell-based, Staphylococcus aureus. The following applies: Staph. aureus 133, 24 hours, 37°C. The procedure, abridged:
as §1

“And” between values parts separate entries of the source, which are not always exact repeats. Equal values may be shown once.

`CN(C(=O)Cc1ccc([N+](=O)[O-])cc1)C(=O)N[C@@H](C(=O)N[C@@H]1C(=O)N2[C@@H]1SC(C)(C)[C@@H]2C(=O)O)c1ccccc1` [Example 132, Sodium D(-)-α-(3-[4-nitrophenacetyl]-3-methyl-ureido)-benzylpenicillin]: the MIC was 4-20 units/ml in assay [1]; 4-20 units/ml in assay [2]; 4-20 units/ml in assay [3]; 20-100 units/ml in assay [4]; greater than 400 units/ml in assay [5]; 0.8-4 units/ml in assay [6]. Moreover, the MIC in assay [7] is listed as 0.8 units/ml; in [8], 4-20 units/ml; in assay [9], less than 0.8 units/ml; in [10], 0.8-4 units/ml; in [11], 4-20 units/ml; in assay [12], 20-100 units/ml. In assay [13], this molecule registered an MIC of less than 0.8 units/ml.

As for `CC1(C)S[C@@H]2[C@H](NC(=O)C(NC(=O)N3CCNC3=O)c3ccc(Cl)cc3)C(=O)N2[C@H]1C(=O)O` (stereo partly drawn) [Example 47, Sodium α-[(imidazolidin-2-on-1-yl)-carbonylamino]-p-chloro benzylpenicillin], the MIC is recorded as 12,5 units/ml in assay [1]; 12,5 units/ml in assay [2]; 100 units/ml in assay [3]; 50 units/ml in assay [4]; greater than 400 units/ml in assay [5]; 25 units/ml in assay [6]. For the same molecule, the MIC in assay [7] is 3,12 units/ml; in [8], 50 units/ml; in assay [9], 6,25 units/ml; in assay [10], 100 units/ml; in assay [11] it was 50 units/ml; in assay [12], 200 units/ml. The MIC in assay [13] was < 0,78 units/ml.

With `CN(C(=O)N[C@@H](C(=O)N[C@@H]1C(=O)N2[C@@H]1SC(C)(C)[C@@H]2C(=O)O)c1ccccc1)C(=O)C1CCCCC1` [Example 62], the MIC was 12 units/ml and 12.5 units/ml in assay [1]; 25 units/ml in assay [2]; 100 units/ml in [3]; 100 units/ml in assay [4]; 400 units/ml in assay [5]; 6.25 units/ml in assay [6]. For the same molecule, the MIC in [7] is recorded as 1.56 units/ml; in [8], 100 units/ml; in assay [9], 3.12 units/ml; in [10], 6.25 units/ml; in assay [11], 6.25 units/ml; in [12], 400 units/ml. In [13], this molecule showed an MIC of less than 0.78 units/ml.

In the case of `CN(C(=O)C=Cc1cccc([N+](=O)[O-])c1)C(=O)N[C@@H](C(=O)N[C@@H]1C(=O)N2[C@@H]1SC(C)(C)[C@@H]2C(=O)O)c1ccccc1` [Example 131, Sodium D(-)-α-(3-m-nitrocinnamoyl-3-methyl-ureido)-benzylpenicillin], the MIC in [1] is reported as 0.8-4 units/ml; in [2] it was 0.8-4 units/ml; in [3], 0.8-4 units/ml; in [4], 4-20 units/ml; in assay [5], 20-100 units/ml; in [6], less than 0.8 units/ml. Moreover, the MIC in assay [7] is 0.8 units/ml; in assay [8] it was 4-20 units/ml; in assay [9] it was less than 0.8 units/ml; in assay [10] it was 0.8-4 units/ml; in assay [11], 0.8-4 units/ml; in [12], 20-100 units/ml. The same molecule gave an MIC in assay [13] of less than 0.8 units/ml.

As to `CC1(C)S[C@@H]2[C@H](NC(=O)[C@H](NC(=O)N3CCNC3=O)c3ccccc3)C(=O)N2[C@H]1C(=O)O` [Example 51, Sodium D(-)-α-[(imidazolidin-2-on-1-yl)-carbonylamino]-benzylpenicillin], the MIC in [1] is given as 12,5 units/ml; in [2] it was 12,5 units/ml; in assay [3], 100 units/ml; in [4] it was 50 units/ml; in assay [5], 400 units/ml; in assay [6], 12,5 units/ml. For the same molecule, the MIC is listed as 3,12 units/ml in assay [7]; 25 units/ml in [8]; 12,5 units/ml in [9]; 25 units/ml in [10]; 25 units/ml in assay [11]; 400 units/ml in assay [12]. Further, the MIC in assay [13] is < 0,78 units/ml.

Take `CN(C(=O)N[C@@H](C(=O)N[C@@H]1C(=O)N2[C@@H]1SC(C)(C)[C@@H]2C(=O)O)c1ccccc1)C(=O)c1ccc(Cl)cc1[N+](=O)[O-]` [Example 127, Sodium D(-)-α-(3-[2-nitro-4-chlorobenzoyl]-3-methyl-ureido)-benzylpenicillin]: the MIC in [1] came to 12.5 units/ml; in assay [2], 25 units/ml; in [3] it was 12.5 units/ml; in [4], 12.5 units/ml; in [5] it was 50 units/ml; in [6], 3.12 units/ml. In addition, the MIC is recorded as 0.78 units/ml in assay [7]; 25 units/ml in assay [8]; 1.56 units/ml in assay [9]; 6.25 units/ml in assay [10]; 3.12 units/ml in assay [11]; 12.5 units/ml in assay [12]. Also, the MIC in assay [13] is recorded as less than 0.78 units/ml.

Consider `COC(=O)N(C)C(=O)N[C@@H](C(=O)N[C@@H]1C(=O)N2[C@@H]1SC(C)(C)[C@@H]2C(=O)O)c1c(Cl)cccc1Cl` [Example 7, Sodium D(-)-α-(3-methoxycarbonyl-3-methyl-ureido)-2,6-dichlorobenzylpenicillin], for which the MIC in assay [1] is recorded as 100-500 units/ml; in assay [2], greater than 500 units/ml; in [3], greater than 500 units/ml; in [4], greater than 500 units/ml; in [5] it was greater than 500 units/ml; in assay [6], 100-500 units/ml. In addition, the MIC was 100-500 units/ml in assay [7]; 100-500 units/ml in assay [8]; 100-500 units/ml in [9]; 100-500 units/ml in [10]; ~ 500 units/ml in assay [11]; 100-500 units/ml in [12]. In addition, in [13], the MIC is given as 0.8-4 units/ml.

For the molecule `CN(C(=O)N[C@@H](C(=O)N[C@@H]1C(=O)N2[C@@H]1SC(C)(C)[C@@H]2C(=O)O)c1ccccc1)C(=O)N1CCCCC1` [Example 123, Sodium D(-)-α-(3-[1-piperidyl]-carbonyl-3-methyl-ureido)-benzylpenicillin], the MIC in [1] is reported as 50 units/ml; in assay [2], 100 units/ml; in [3] it was 50 units/ml; in [4] it was 100 units/ml; in assay [5], greater than 400 units/ml; in assay [6], 25 units/ml. Also, the MIC amounted to 3.12 units/ml in [7]; 200 units/ml in assay [8]; 12.5 units/ml in assay [9]; 100 units/ml in [10]; 50 units/ml in assay [11]; 25 units/ml in assay [12]. The same molecule registered an MIC in [13] of less than 0.8 units/ml.
